Like-named read-outs stand apart in the source and are kept apart here.
Key:
hnRNP-E1 mRNA = assay: In vitro translation of hnRNP-E1; type: biochemical, human
Procedure: (§1) In vitro transcription-translation was carried out using the Linked SP6/T7 In Vitro Transcription/Translation Kit (Roche Applied Science) after addition of one of various targeted DNAs—pSPT18-25-hnRNP-E1 DNA, or Pst1-linearized plasmid pSPT18-folate receptor-α, or HPV16 L2 DNA, (0.5 μg/reaction)—to the transcription mix as described. In other experiments, the capacity for perturbing the interaction of hnRNP-E1 with the 25-nt hnRNP-E1 cis-element during in vitro translation was assessed in the presence of either scrambled oligonucleotides (5′-[…]-3′ SEQ ID NO:20) or specific antisense oligonucleotides (5′-[…]-3′ SEQ ID NO:21) generated against the 25-nt hnRNP-E1 mRNA cis-element (GenScript USA, Piscataway, N.J.).

[1] = biological target: T1, RNA-protein complexes of GST-hnRNP-E1 and 25-nt hnRNP-E1 mRNA cis-element (Homo sapiens, UniProt Q15365, A205V); assay: Gel-shift assay: effect of thiols, iron and deferoxamine on RNA-protein complex formation; type: binding
T1 construct: made in house; host or cells: Escherichia coli BL21
T1 sequence (Q15365 whole entry A205V, one chain of several): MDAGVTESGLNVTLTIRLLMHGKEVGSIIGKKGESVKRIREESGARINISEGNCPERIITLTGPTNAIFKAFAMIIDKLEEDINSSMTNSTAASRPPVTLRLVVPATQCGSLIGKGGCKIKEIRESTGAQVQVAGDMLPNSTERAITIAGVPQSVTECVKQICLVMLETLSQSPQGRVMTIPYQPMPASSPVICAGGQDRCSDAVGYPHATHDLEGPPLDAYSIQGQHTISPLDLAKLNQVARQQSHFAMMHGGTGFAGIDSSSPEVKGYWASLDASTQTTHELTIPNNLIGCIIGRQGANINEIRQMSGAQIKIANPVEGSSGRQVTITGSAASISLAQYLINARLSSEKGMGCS

[2] = biological target: T2, 25-nt hnRNP-E1 mRNA cis-element-bound hnRNP-E1 protein complexes (Homo sapiens, UniProt Q15365); assay: Slot-blot capture of intracellular RNA-protein complexes in placental 1584-HF cells; type: cell-based; settings: increasing concentrations, 2-hour exposure
T2 construct: endogenous in cells; host or cells: human placental 1584-HF / 1584-LF cells
T2 sequence (Q15365 whole entry, one chain of several): as the sequence (Q15365 whole entry A205V, one chain of several) above, with V205A counted along it
Procedure: Slot-blot hybridization was carried out under high stringency conditions to detect intracellular RNA-protein complexes (composed of endogenous hnRNP-E1 RNA cis-element-bound to cellular hnRNP-E1 proteins) in placental 1584 cells under experimental conditions that modulated the intracellular concentration of homocysteine. We employed similar principles used to capture folate receptor-α mRNA cis-element-bound hnRNP-E1 complexes in HeLa-IU1 cells. […] Following RNase treatment and proteolysis, equal aliquots of the released small mRNA cis-element fragments were probed for evidence of enrichment of hnRNP-E1 mRNA cis-element in experimental cells using a specific [^35S]labeled antisense hnRNP-E1 mRNA cis-element probe.

[3] = biological target: hnRNP-E1 binding to folate receptor mRNA and hnRNP-E1 mRNA cis-element (Homo sapiens, UniProt Q15365); settings: physiologically relevant thiols; cited from earlier work
Sequence of hnRNP-E1 binding to folate receptor mRNA and hnRNP-E1 mRNA cis-element (Q15365 whole entry): as the sequence (Q15365 whole entry A205V, one chain of several) above, with V205A counted along it

[4] = tested on: 25-nt hnRNP-E1 cis-element-driven CAT reporter; assay: 25-nt hnRNP-E1 cis-element-driven CAT reporter in placental 1584-HF cells; type: cell-based, human; settings: 50-μM L-homocysteine for 3-h at 37° C.
From the text: To prepare pCAT-25 or pCAT-25-Mutant two pairs of oligonucleotides, one for pCAT-25, (5′-tagcaggtac AAGCTTCTCCCGCCCGCTCCCGCTCGCTCCCCATGG tgtaactagct-3′SEQ ID NO:22; 5′-agctagttaca CCATGGGGAGCGAGCGGGAGCGGGCGGGAGAAGCTT gtacctgcta-3′ SEQ ID NO:23), and one for pCAT-25-Mutant#6, (5′-tagcaggtac AAGCTTCTTCCGCCCGCTCCCGCTCGCTTCCCATGG tgtaactagct-3′ SEQ ID NO:24; 5′-agctagttaca CCATGGGGAGCGAGCGGGAGCGGGCGGGAGAAGCTT gtacctgcta-3′SEQ ID NO:25) were first linearized with HindIII and NcoI and subcloned into pCAT3 Control DNA digested with HindIII and NcoI.

[5] = biological target: T3, RNA-protein interaction of 25-nt hnRNP-E1 mRNA cis-element and GST-hnRNP-E1 (Homo sapiens, UniProt Q15365, A205V); assay: Influence of thiols or iron(II) on the KD of the RNA-protein interaction; type: binding; settings: L-homocysteine present
T3 construct: made in house; host or cells: Escherichia coli BL21
T3 sequence (Q15365 whole entry A205V): as the sequence (Q15365 whole entry A205V, one chain of several) above
Procedure: (§2) Specific binding was determined by subtracting values of non-specific binding with GST from those of total binding with GST-hnRNP-E1; (however, in Table 1 and FIG. 6G, non-specific binding using bovine serum albumin (BSA) was subtracted from total binding to GST-hnRNP-E1 to determine specific binding). The KD was calculated from a Scatchard plot using GraphPad Prism 6 from GraphPad Software (San Diego, Calif.), as previously described in the art.

[6] = biological target: T1, RNA-protein complexes of GST-hnRNP-E1 and 25-nt hnRNP-E1 mRNA cis-element; assay: Gel-shift assay: effect of thiols, iron and deferoxamine on RNA-protein complex formation; type: binding; settings: fixed L-homocysteine
Procedure: Other studies assessed the effect of iron(II) or iron(III) on homocysteine-induced RNA-protein interactions.
Studies were conducted to evaluate the effect of iron(II) (as ferrous sulfate heptahydrate) or iron(III) (as ferric chloride hexahydrate) in modulating RNA-protein interactions during gel-shift assays in either the absence or presence of 10-mM glutathione. The iron preparation, either alone or with 50-μM of deferoxamine (DFO) to define the specificity of iron(II), was incubated first with glutathione and hnRNP-E1 before addition of other components of the reaction mixture. […] The samples were analyzed by PAGE and autoradiography overnight followed by densitometric analysis of the signals representing RNA-protein complexes.

HPV16 L2 RNA = assay: In vitro translation of HPV16 L2 protein; type: biochemical, Human Papillomavirus type 16
Procedure: as §1
Construction of plasmids for generation of HPV16 L2 RNA, gel-shift and in vitro translation studies were carried as described with additional treatments shown in FIGS. 10A-10D

[7] = tested on: newly synthesized [^35S]folate receptors in placental 1584-HF cells; assay: Biosynthetic rate of folate receptors after protein transfection into placental 1584-HF cells; type: cell-based, human; settings: protein transfected in placental 1584-HF cells
From the text: (§3) Transfection of purified recombinant wild-type or various mutant hnRNP-E1 proteins into cells was achieved using the Xfect™ Protein Transfection Kit (Clontech, Mountain View, Calif.). Briefly, placental 1584-HF cells in 10-cm dishes at 70-80% confluence were transfected with 2.4-mL serum-free medium and Xfect Protein Transfection Reagent (1.2-mL) containing 20-μg of either wild-type hnRNP-E1-, or highest-affinity (HA)-hnRNP-E1(C293S)-mutant, or wild-type-like hnRNP-E1 (G292A)-mutant proteins and 2-μg of ß-galactosidase at 37° C. for 60-min. After cysteine-starvation for 4-h, an aliquot of cells were assessed for ß-galactosidase activity (to measure the efficiency of co-transfection of ß-galactosidase) and the remaining cells were pulsed with L-[^35S]cysteine (250-μCi) and assessed for specific [^35S]cysteine incorporated into folate receptor to determine the biosynthetic rate of this protein. A similar protocol was employed for analysis of newly synthesized [^35S]hnRNP-E1 using anti-hnRNP-E1 antiserum-coupled agarose and control agarose in order to derive values for specific [^35S]cysteine incorporated into hnRNP-E1 and thereby determine the biosynthetic rate of this protein.

[8] = tested on: newly synthesized [^35S]hnRNP-E1 in placental 1584-HF cells; assay: Biosynthetic rate of hnRNP-E1 after protein transfection into placental 1584-HF cells; type: cell-based, human; settings: protein transfected in placental 1584-HF cells
From the text: as §3

[9] = biological target: [^35S]18-nt folate receptor-α mRNA cis-element; assay: Dissociation constant (KD) of GST-hnRNP-E1 or its mutant proteins for the 18-nt folate receptor-α mRNA cis-element; type: binding, human
Procedure: (§4) Methods for testing the ability of an engineered hnRNP-E1 variant polypeptide to bind to an RNA comprising the sequence of SEQ ID NO:6 are known in the art. Such methods include, but are not limited to, RNA electrophoretic mobility shift assays, as exemplified herein, RNA pull-down assays, and oligonucleotide-targeted RNase H protection assays. Such assays are conducted in the presence or absence of homocysteine to determine the RNA-binding dependence of any particular hnRNP-E1 polypeptide tested on the presence of homocysteine. […] Additional methods are outline in Tang et al. (“Incrimination of heterogeneous nuclear ribonucleoprotein E1 (hnRNP-E1) as a candidate sensor of physiological folate deficiency.” J Biol Chem. 2011; 286(45):39100-39115), which is incorporated herein in its entirety.
as §2

[10] = biological target: [^35S]18-nt folate receptor-α mRNA cis-element; settings: earlier studies, cited from earlier work
[11] = tested on: 25-nt hnRNP-E1 mRNA cis-element; assay: Gel-shift assay of hnRNP-E1 proteins with 25-nt hnRNP-E1 mRNA cis-element; type: binding, human; settings: absence of L-homocysteine
Procedure: Parenthetically, there was no significant difference in RNA binding to GST-hnRNP-E1 by use of either 32P-RNA probes or 35S-labeled RNA probes used. Other studies assessed the effect of iron(II) or iron(III) on homocysteine-induced RNA-protein interactions.
Recombinant GST-plasmid DNA, pGST-hnRNP-E1, pGST-hnRNP-E2, and related engineered variant plasmids were transformed into BL21 Escherichia coli from Novagen (Madison, Wis.). After induction by 1 mM isopropyl-1-thio-ß-D-galactopyranoside, the GST-hnRNP-E1 and engineered variant fusion proteins were individually purified using the B-PER GST Fusion Protein Purification Kit (Pierce, Rockford, Ill.). The eluted GST fusion proteins were dialyzed against 500 volumes of buffer to remove excess reducing reagents (such as dithiothreitol (DTT)) and assayed by SDS-PAGE and Western blots using anti-peptide hnRNP-E1 antiserum. Gel shift assays with target RNA were carried out as described.

[12] = biological target: [^35S]25-nt hnRNP-E1 mRNA cis-element; assay: Dissociation constant (KD) of GST-hnRNP-E1 or its mutant proteins for the 25-nt hnRNP-E1 mRNA cis-element; type: binding, human
Procedure: as §4, §2

## N[C@@H](CCS)C(=O)O [L-Homocysteine, L-homocysteine]
hnRNP-E1 mRNA; N-ethylmaleimide maintained in the reaction mixture, physiological concentrations
  translation of hnRNP-E1: progressively increased translation of hnRNP-E1
[1]; 10-mM glutathione in reaction mixture, from 5-μM
  RNA-protein complex formation: dose-dependent increase in RNA-protein complex formation
[1]; in vitro assays using purified components
  concentration at which RNA-protein interaction can occur: ≥ 2.5 µM
[1]; increasing physiologically relevant concentrations
  RNA-protein signal: dose-dependent increase of RNA-protein signal
[2]
  slot-blot hybridization signal of captured RNA-protein complexes: progressive dose-dependent increase in signal
[3]
  hnRNP-E1 activation and mRNA-binding: optimal
[4]
  CAT activity: further significant increase in CAT activity over baseline

## O.O.O.O.O.O.O.O=S(=O)([O-])[O-].[Fe+2] [iron(II), ferrous sulfate heptahydrate]
hnRNP-E1 mRNA; agent added to translation mixture (4.1-mM ß-ME)
  effect on in vitro translation of hnRNP-E1: dose-dependent impact in quenching the in vitro translation of hnRNP-E1
[5]
  RNA-protein binding affinity (KD): dose-dependent reduction in RNA-protein binding affinity
[6]; 10-mM glutathione
  effect on RNA-complex formation: comparable dose-dependent reduction in RNA-complex formation
[6]; no glutathione
  effect on formation of RNA-protein complexes: dose-dependent inhibitory effect

## GST-hnRNP-E1: purified recombinant glutathione S-transferase fusion of wild-type human hnRNP-E1 (SEQ ID NO:1)
HPV16 L2 RNA; after quenching excess ß-ME by NEM (2 mM)
  HPV16 L2 protein signal: insignificant reduction of HPV16 L2 protein signal
HPV16 L2 RNA; basal conditions, excess ß-ME not counteracted by NEM, dose-dependent addition
  in vitro translation of HPV16 L2 protein: progressive reduction in the in vitro translation of HPV16 L2 protein
[7]
  [^35S]cysteine-folate receptor: 1.62 ± 0.11 b fmol/mg protein/h
[7]; listed as wild-type hnRNP-E1
  [^35S]cysteine-folate receptor: 1.62 fmol/mg protein/h
[8]
  [^35S]cysteine-hnRNP-E1: 1.12 ± 0.23 b fmol/mg protein/h
[8]; listed as wild-type hnRNP-E1
  [^35S]cysteine-hnRNP-E1: 1.12 fmol/mg protein/h
[9]; L-Homocysteine 0 μM
  Kd: 1.47 nM
[9]; L-Homocysteine 10 μM
  Kd: 0.89 ± 0.16 nM
[9]; L-Homocysteine 50 μM
  Kd: 0.47 nM
[10]; L-homocysteine raised to levels of mild-to-moderate folate deficiency
  Kd: 0.5 nM
[10]; baseline
  Kd: 1.5 nM
[11]
  RNA-protein gel-shift signal: no RNA-protein gel-shift signals
[12]; Iron(II) 0 μM, L-Homocysteine 25 μM
  Kd: 2.74 ± 0.52 nM
[12]; Iron(II) 5 μM, L-Homocysteine 25 μM
  Kd: 3.72 ± 0.34 nM
[12]; Iron(II) 25 μM, L-Homocysteine 25 μM
  Kd: 6.5 ± 0.83 nM
[12]; L-Homocysteine 0 μM
  Kd: 1.93 nM
[12]; L-Homocysteine 10 μM
  Kd: 1.14 nM
[12]; L-Homocysteine 50 μM
  Kd: 0.62 nM

From patent US10093706B2, “Dominant positive hnRNP-E1 polypeptide compositions and methods” (Indiana University Research and Technology Corporation, priority 2017, dated 2018)
